# Data taken from PMC4890880 (ACS infectious diseases, 2016).
# Like-named read-outs stand apart in the source and are kept apart here.
# Tests used:
# [1] = system: Plasmodium berghei (Pb-Luc) exoerythrocytic-stage parasites; conditions: for normalized signal at concentration 0.000508053 / normalized signal at concentration 0.00152416 / normalized signal at concentration 0.00457247 / normalized signal at concentration 0.0137174 / normalized signal at concentration 0.0411523 / normalized signal at concentration 0.123457 / normalized signal at concentration 0.37037 / normalized signal at concentration 1.11111 / normalized signal at concentration 3.33333 / normalized signal at concentration 10: fraction of control; for IC50: read-out: PbLuc_IC50; for IC50 / PbLuc_max_inhibition (%): sheet 2nd round; for PbLuc_max_inhibition (%): maximal inhibition in dose response
# HepG2-A16-CD81EGFP cells = conditions: sheet 2nd round; for IC50: read-out: Tox_IC50, HepG2 cytotoxicity; for Tox_max_inhibition (%): maximal inhibition in dose response
# [2] = Pb-Luc exoerythrocytic stage, 10-point dose response, top concentration 10
# [3] = second series of columns (replicate)
# [4] = first series of dose-response columns
# [5] = second series of dose-response columns
compound,measurement,setting,value
C[C@H]1CN([C@@H](C)CO)C(=O)CCCn2cc(nn2)CO[C@H]1CN(C)C(=O)Nc1cccc2ccccc12 [BRD-K54628954-001-01-2],normalized signal at concentration 0.000508053,[1]; first series of columns,0.8794
same,normalized signal at concentration 0.00152416,[1]; first series of columns,0.9359
same,normalized signal at concentration 0.00457247,[1]; first series of columns,0.9054
same,normalized signal at concentration 0.0137174,[1]; first series of columns,0.8762
same,normalized signal at concentration 0.0411523,[1]; first series of columns,0.8388
same,normalized signal at concentration 0.123457,[1]; first series of columns,0.9562
same,normalized signal at concentration 0.37037,[1]; first series of columns,0.9801
same,normalized signal at concentration 1.11111,[1]; first series of columns,0.9783
same,normalized signal at concentration 3.33333,[1]; first series of columns,0.874
same,normalized signal at concentration 10,[1]; first series of columns,0.9112
same,IC50,[1]; [2],> 10 µM
same,normalized signal at concentration 0.000508053,[1]; [3],0.8292
same,normalized signal at concentration 0.00152416,[1]; [3],0.8809
same,normalized signal at concentration 0.00457247,[1]; [3],0.7545
same,normalized signal at concentration 0.0137174,[1]; [3],0.9599
same,normalized signal at concentration 0.0411523,[1]; [3],0.9428
same,normalized signal at concentration 0.123457,[1]; [3],0.9557
same,normalized signal at concentration 0.37037,[1]; [3],0.8087
same,normalized signal at concentration 1.11111,[1]; [3],0.9126
same,normalized signal at concentration 3.33333,[1]; [3],0.9018
same,normalized signal at concentration 10,[1]; [3],1.015
same,PbLuc_max_inhibition (%),[1],25%
same,IC50,HepG2-A16-CD81EGFP cells,> 10 µM
same,Tox_max_inhibition (%),HepG2-A16-CD81EGFP cells,1.76%
COc1cccc(CN2[C@H](CO)[C@@H](c3ccccc3)C23CN(Cc2ccccc2OC)C3)c1 [BRD-K58149752-001-01-9],normalized signal at concentration 10,[1]; [4],0.43
same,normalized signal at concentration 0.000508053,[1]; first series,0.95
same,normalized signal at concentration 0.00152416,[1]; first series,0.91
same,normalized signal at concentration 0.00457247,[1]; first series,0.80
same,normalized signal at concentration 0.0137174,[1]; first series,0.89
same,normalized signal at concentration 0.0411523,[1]; first series,0.73
same,normalized signal at concentration 0.123457,[1]; first series,1.00
same,normalized signal at concentration 0.37037,[1]; first series,0.78
same,normalized signal at concentration 1.11111,[1]; first series,1.22
same,normalized signal at concentration 3.33333,[1]; first series,1.08
same,IC50,"[1]; Broad compounds, dose response",> 10 µM
same,normalized signal at concentration 10,[1]; [5],0.60
same,normalized signal at concentration 0.000508053,[1]; second series,0.82
same,normalized signal at concentration 0.00152416,[1]; second series,0.84
same,normalized signal at concentration 0.00457247,[1]; second series,0.88
same,normalized signal at concentration 0.0137174,[1]; second series,0.90
same,normalized signal at concentration 0.0411523,[1]; second series,1.01
same,normalized signal at concentration 0.123457,[1]; second series,0.92
same,normalized signal at concentration 0.37037,[1]; second series,0.85
same,normalized signal at concentration 1.11111,[1]; second series,0.92
same,normalized signal at concentration 3.33333,[1]; second series,0.98
same,PbLuc_max_inhibition (%),[1],57%
same,IC50,HepG2-A16-CD81EGFP cells,> 10 µM
same,Tox_max_inhibition (%),HepG2-A16-CD81EGFP cells,12%
C[C@H](CO)N1C[C@H](C)[C@H](CN(C)S(=O)(=O)c2ccc(F)cc2)OCCCC[C@H](C)Oc2ccc(N(C)C)cc2C1=O [BRD-K59130783-001-01-1],normalized signal at concentration 0.000508053,[1]; first series of columns,0.8293
same,normalized signal at concentration 0.00152416,[1]; first series of columns,0.8148
same,normalized signal at concentration 0.00457247,[1]; first series of columns,0.8395
same,normalized signal at concentration 0.0137174,[1]; first series of columns,0.9506
same,normalized signal at concentration 0.0411523,[1]; first series of columns,0.8723
same,normalized signal at concentration 0.123457,[1]; first series of columns,1.0641
same,normalized signal at concentration 0.37037,[1]; first series of columns,0.9674
same,normalized signal at concentration 1.11111,[1]; first series of columns,0.9129
same,normalized signal at concentration 3.33333,[1]; first series of columns,0.9251
same,normalized signal at concentration 10,[1]; first series of columns,0.7483
same,IC50,[1]; [2],> 10 µM
same,normalized signal at concentration 0.000508053,[1]; [3],1.007
same,normalized signal at concentration 0.00152416,[1]; [3],0.9488
same,normalized signal at concentration 0.00457247,[1]; [3],0.9241
same,normalized signal at concentration 0.0137174,[1]; [3],0.9817
same,normalized signal at concentration 0.0411523,[1]; [3],0.8684
same,normalized signal at concentration 0.123457,[1]; [3],0.9044
same,normalized signal at concentration 0.37037,[1]; [3],1.051
same,normalized signal at concentration 1.11111,[1]; [3],0.8044
same,normalized signal at concentration 3.33333,[1]; [3],0.946
same,normalized signal at concentration 10,[1]; [3],0.5139
same,PbLuc_max_inhibition (%),[1],49%
same,IC50,HepG2-A16-CD81EGFP cells,> 10 µM
same,Tox_max_inhibition (%),HepG2-A16-CD81EGFP cells,7%
O=C(O)C[C@H]1CC[C@@H]2[C@H](COC[C@@H](O)CN2S(=O)(=O)c2ccc(Oc3ccccc3)cc2)O1 [BRD-K61788733-001-01-3],normalized signal at concentration 0.000508053,[1]; first series of columns,0.8641
same,normalized signal at concentration 0.00152416,[1]; first series of columns,0.8788
same,normalized signal at concentration 0.00457247,[1]; first series of columns,0.8741
same,normalized signal at concentration 0.0137174,[1]; first series of columns,0.9455
same,normalized signal at concentration 0.0411523,[1]; first series of columns,0.9154
same,normalized signal at concentration 0.123457,[1]; first series of columns,0.9561
same,normalized signal at concentration 0.37037,[1]; first series of columns,0.927
same,normalized signal at concentration 1.11111,[1]; first series of columns,1.099
same,normalized signal at concentration 3.33333,[1]; first series of columns,1.256
same,normalized signal at concentration 10,[1]; first series of columns,1.046
same,IC50,[1]; [2],> 10 µM
same,normalized signal at concentration 0.000508053,[1]; [3],1.03
same,normalized signal at concentration 0.00152416,[1]; [3],0.992
same,normalized signal at concentration 0.00457247,[1]; [3],0.8804
same,normalized signal at concentration 0.0137174,[1]; [3],0.7616
same,normalized signal at concentration 0.0411523,[1]; [3],1.066
same,normalized signal at concentration 0.123457,[1]; [3],0.77
same,normalized signal at concentration 0.37037,[1]; [3],0.8648
same,normalized signal at concentration 1.11111,[1]; [3],0.993
same,normalized signal at concentration 3.33333,[1]; [3],1.071
same,normalized signal at concentration 10,[1]; [3],1.076
same,PbLuc_max_inhibition (%),[1],24%
same,IC50,HepG2-A16-CD81EGFP cells,> 10 µM
same,Tox_max_inhibition (%),HepG2-A16-CD81EGFP cells,4.62%
C/C=C/c1ccc([C@H]2[C@@H](CO)N(CC3CCCCC3)[C@H]2CNC(C)C)cc1 [BRD-K63968422-001-01-5],normalized signal at concentration 10,[1]; [4],0.94
same,normalized signal at concentration 0.000508053,[1]; first series,1.00
same,normalized signal at concentration 0.00152416,[1]; first series,1.12
same,normalized signal at concentration 0.00457247,[1]; first series,0.90
same,normalized signal at concentration 0.0137174,[1]; first series,1.14
same,normalized signal at concentration 0.0411523,[1]; first series,1.01
same,normalized signal at concentration 0.123457,[1]; first series,0.97
same,normalized signal at concentration 0.37037,[1]; first series,0.96
same,normalized signal at concentration 1.11111,[1]; first series,0.99
same,normalized signal at concentration 3.33333,[1]; first series,1.01
same,IC50,"[1]; Broad compounds, dose response",> 10 µM
same,normalized signal at concentration 10,[1]; [5],0.85
same,normalized signal at concentration 0.000508053,[1]; second series,0.78
same,normalized signal at concentration 0.00152416,[1]; second series,1.01
same,normalized signal at concentration 0.00457247,[1]; second series,1.16
same,normalized signal at concentration 0.0137174,[1]; second series,1.05
same,normalized signal at concentration 0.0411523,[1]; second series,1.10
same,normalized signal at concentration 0.123457,[1]; second series,1.05
same,normalized signal at concentration 0.37037,[1]; second series,1.24
same,normalized signal at concentration 1.11111,[1]; second series,1.02
same,normalized signal at concentration 3.33333,[1]; second series,1.10
same,PbLuc_max_inhibition (%),[1],22%
same,IC50,HepG2-A16-CD81EGFP cells,> 10 µM
same,Tox_max_inhibition (%),HepG2-A16-CD81EGFP cells,9%
